The values below come from US20210198613A1, “MICROELECTRODE ARRAY AND USES THEREOF” (AXOSIM, INC., priority 2018, published 2021).

Where two headings read alike, the source gives them in different places.

Data set [1] relates to neuronal cell death in vitro. To be noted: cited from earlier work.
Data set [2] concerns embryonic dorsal root ganglion (DRG) explants. To be noted: 40 μM, 48-hr application.
The test system is the same in data set [3]. Briefly: Nerve-On-A-Chip compound action potential (CAP) electrophysiology. It is filed as cell-based, rat. To be noted: 40 μM, 48-hr application.
The test system is the same in data set [4]. To be noted: cited from earlier work.

Consider `[CH3][Hg][Cl]` [Methylmercury], for which the “In Vitro Neurotoxic dose” value in data set [1] (literature value, used as acute 48-hr dose of the planned pilot study) is listed as 10 mM.

Regarding `C=C[C@@]1(C)CC(=O)[C@]2(O)[C@@]3(C)[C@@H](O)CCC(C)(C)[C@@H]3[C@H](O)[C@H](OC(C)=O)[C@@]2(C)O1` [forskolin], the dysmyelination by histology result in data set [2] is “strong evidence of dysmyelination”. In data set [2] (histology, data not shown), the “increase in G-ratio (thinning of myelin sheath)” value worked out at 50% and the “reduction in % myelinated axons” value stood at 70%. For the same compound, in data set [3], the “reduction in CAP amplitude” value is reported as about 50% and the “reduction in conduction velocity” value is listed as about 50%.

`CCCCCC` [n-hexane]: in data set [1], the “In Vitro Neurotoxic dose” value is 765 mM.

As for `NC1=N[C@H](O)[C@H]2[C@H]3O[C@]4(O)O[C@@H]([C@@H](O)[C@@]2(N1)[C@@H]4O)[C@]3(O)CO` [tetrodotoxin], the “effect on CAP population responses” value in data set [4] is “reversibly abolished”.
